The text below walks through data of patent publication US10844102B2, “Peptides, compositions, and methods for stimulating subcutaneous adipogenesis” (The Regents of the University of California, priority 2014, dated 2020).

Experiment [1] concerns adipogenesis. Kind of experiment: Adipogenic activity of peptides and peptide fragments, assay not specified. Format: cell-based. The settings on record: assay not specified. As to the method:
In the second approach, a series of truncations and alanine mutagenesis on peptide B were performed in order to identify the smallest active sequence. Fragments of peptide B were prepared and assayed for adipogenesis. First, fragments corresponding to the two halves of peptide B were prepared (KLKDENS (SEQ ID NO: 8) and SQLKSEVSK (SEQ ID NO: 13)).

The test system of experiment [2] is human primary cells directly isolated from human subcutaneous fat or dermal tissue. Put plainly: Human primary cells isolated from subcutaneous fat or dermal tissue. In kind it is cell-based.
Experiment [3] relates to adipogenesis. The settings on record: earlier reports, WO 2014/082042 and background; cited from earlier work.
Experiment [4] deals with rat mesenchymal stem cells. Kind of experiment: Assay 2: adipogenesis, Oil Red O staining (differentiation of pre-adipocytes into adipocytes). In kind it is cell-based. The settings on record: for adipogenic activity in Assay 2: Assay 2, Oil Red O, concentration not given; for adipogenesis quantified by Oil Red O staining, fold change relative to the negative control: three weeks. How it is done: Reagents: The Dexamethasone, IBMX, Insulin, and Oil Red O Solutions were the same as described above for assay 1. Indomethacin Solution contained 10 mM indomethacin in methanol.
Adipogenesis Maintenance Media was prepared as described above.
Adipogenesis Induction Media: To prepare 501.5 mL of Adipogenesis Induction Media, 50 μL of the 10 mM stock Dexamethasone Solution, 500 μL of the 0.5 M IBMX stock solution, 500 μL of the 10 mg/ml stock Insulin Solution, 5 ml of a 10 mM stock Indomethacin Solution, and 5 mL of a 100× stock solution of penicillin and streptomycin were added to 490 mL of mesenchymal stem cell expansion media.
Pre-adipocyte stem cells, bone marrow mesenchymal stem cells or fibroblasts such as dermal reticular and papillary fibroblasts were propagated using standard tissue culture methods. Cells were trypsinized to remove cells from the substratum, the trypsin was neutralized, and cells were counted using a hemocytometer. Cells were resuspended at 20,000 cells/ml in DMEM containing 10% calf serum. 1 mL of cell suspension per well was plated in a 48-well plate, with several wells left empty for blank well (blank control) staining.
Cells were incubated for 2 days overnight and had reached confluency at this point. Media was removed from each well and replaced with 0.5 ml Adipogenesis Induction Media. For negative control (no insulin, no peptide) wells, expansion medium only was used at this step and for subsequent media changes. For all media changes, media was replaced as gently as possible to avoid disturbing the monolayer.
Cells were incubated for 72 hours at 37° C., 5% CO2. Media was removed and replaced with 0.5 ml of Adipogenesis Maintenance Media containing either RHAMM antagonist peptides (experimental group) or insulin (concentration as in the Adipogenesis Induction Media and used as a positive control). Cells were incubated for at least 96 hours in this media at 37° C., 5% CO2. Media was replaced every 48 hours and experiments were terminated between seven and fourteen days after addition of insulin or peptides.
Media was removed and Oil Red O staining was performed as described above for assay 1.
Assay 1 is an assay that promotes transdifferentiation of fibroblasts into adipocytes, whereas Assay 2 promotes differentiation of multi-potential mesenchymal progenitor cells into adipocytes. Immortalized rat bone marrow mesenchymal stem cells were used for both assays. These cells contain cells of different lineages, including fibroblasts, pre-adipocytes, pre-chondrocytes and pre-osteoblasts. Thus, Assay 1 was used to promote transdifferentiation of fibroblast lineages into adipocytes and Assay 2 was used to promote differentiation of the pre-adipocytes into adipocytes.
As described in Example 1 above, the priming stimulus for Assay 1 includes IBMX (3-isobutyl-1-methylxanthine) and dexamethasone, and then insulin as the final adipogenic stimulus. The priming stimulus for assay 2 includes IBMX, dexamethasone and indomethacin, and then insulin as the final adipogenic stimulus.
Adipogenesis was quantified by Oil Red O staining. The peptide was tested at concentrations of 5 and 50 μg/ml over a period of three weeks. Cells were plated in 48-well culture plates, and the purity of the peptides was >95%. All data are presented as the fold change relative to the negative control (Ctr(−))±standard error. The KSEVSK 6-mer (SEQ ID NO: 7) was used as a positive control.

For another experiment, the system named is dermis of aged rats. Kind of experiment: Rat dermal skin model of adipogenesis (injection into the dermis of aged rats). Format: in vivo. The settings on record: injected into the dermis of aged rats / rat skin.
In a further experiment the test system is 3T3L cells. Put plainly: Adiponectin ELISA on supernatant medium of primed 3T3L cells. The settings on record: 10 μg/ml peptide, versus no insulin control. Format: cell-based, mouse. As to the method: 3T3L cells were cultured in T75 culture flasks, in expansion medium (Millipore Corporation), and stored in a 5% CO2 humidified incubator at 37° C. Media was changed every two days until the cells reached 80% confluency. Cells were subcultured in a 96 well plate with a seeding density of 3×10^4 cells per cm^2.
Once cells had just reached confluency, expansion media was replaced with 0.5 mL of Adipogenic Induction Media per well containing 5% serum that had been screened for an ability to maintain stem cells in an undifferentiated state (LifeTechnologies). Cells were incubated for 48 hours at 37° C., 5% CO2. The Adipogenic Induction Media contained DMEM (low glucose, Gibco) +5% serum (LifeSciences) with 0.5 mM IBMX solution, 1 μM Dexamethasone Solution, and 100 μM Indomethacin Solution (priming stimulus). After 48 hr the Adipogenic Induction media was replaced with new media containing 10 μg/ml insulin alone (positive control), or 10 μg/ml peptide (experimental conditions). Negative controls were DMEM +5% serum only. Plates were incubated for two days prior to adiponectin ELISA analyses. Peptides were added daily at 10 μg/ml throughout the remainder of the experiment.
Adiponectin present in the supernatant medium was measured using a mouse adiponectin ELISA (Novex, LifeTechnologies). Briefly, supernatant medium was collected and diluted 1:100. One hundred microliters of the diluted supernatant medium was added to each well of the ELISA plate and incubated for one hour at 37° C. Wells were washed three times with 1× wash buffer and then 100 μl of antibody was added to each well and incubated for one hour at 37° C. The wells were then washed and incubated with 100 μl detector antibody for 1 hr at 37° C. The wells were washed five times with wash buffer and 100 μl of substrate solution was added to each well and incubated for twenty minutes in the dark. The reaction was then stopped by the addition of 100 μl stop solution. Plates were read at 450 nm and concentrations of adiponectin were derived from a standard curve included in the ELISA plate.
Insulin and the KSEVSK peptide (SEQ ID NO: 7) served as positive controls. […] In FIG. 7, values marked by asterisks represent significant changes relative to the no insulin control (i.e., the negative control) using a two-tailed Student's T test, p<0.05.
A general note: ELISA stands for enzyme-linked immunosorbent assay.

“Also recorded” adds a separate entry of the source. Read-outs that look alike come from different tables or passages of the source.

For the substance “KSEVSK (listed as Homo sapiens) [reference compound]”, the adipogenic activity entry in the experiment on adipogenesis [1] was “also found to be adipogenic”; in the experiment on adipogenesis [3], “strongly adipogenic”. In experiment [2], the “adipogenic activity in human primary cells” value is “exhibited adipogenic activity”. The “specific activity among the 9-mer, 7-mer and 6-mer fragments” value in experiment [4] (Assay 2) is given as “highest specific activity”. The “adipogenic activity in Assay 2” value in experiment [4] is “exhibit adipogenic activity”. Besides, the “adipogenic effects in rat skin” value with dermis of aged rats is “induce large fat pads”.

Take “KLKDENSQLR (listed as Erinaceus europaeus)”: the “adipogenic activity in the adiponectin assay (adiponectin secretion)” value (shortened to “adipogenic activity … (adiponectin secretion)”) with 3T3L cells is “not subsequently shown to be adipogenic”. The “adipogenic activity in Assay 2” value in experiment [4] is reported as “promising results”.

On to “KTRAHHV (listed as Paenibacillus polymyxa)”, for which the “adipogenic activity … (adiponectin secretion)” value with 3T3L cells was “lack an ability to promote adipogenesis”; in the experiment on 3T3L cells (listed as KTRASHHV), “did not exhibit adipogenic activity”. Besides, in experiment [4], the “adipogenic activity in Assay 2” value was “ablated adipogenic activity”.

With KLKDENSQLK (listed as Homo sapiens), in the experiment on adipogenesis [1], the adipogenic activity result is “has adipogenic activity; also recorded: are adipogenic”. In the experiment with 3T3L cells, the “adipogenic activity … (adiponectin secretion)” value is listed as “exhibited activity”. The “adipogenic activity in Assay 2” value in experiment [4] is “exhibited activity”. Further, the “adipogenesis quantified by Oil Red O staining, fold change relative to the negative control” value is listed as “significant increase in adipogenesis” in experiment [4] (Assay 2, peptide 5 μg/ml) and “significant increase in adipogenesis” in experiment [4] (Assay 2, peptide 50 μg/ml).
